Measured values: article PMC5218480 (PLoS ONE, 2017)

System: MV-4-11 cells
Assay: Gene expression microarray analysis (Affymetrix PrimeView) and GSEA
Format: cell-based, human
Set-up: RFU PODN (11730768_x_at) / Fold change /veh PODN (11730768_x_at) / RFU LINC00158 (11744669_a_at) / Fold change /veh LINC00158 (11744669_a_at) / RFU DUSP10 (11751237_a_at) / Fold change /veh DUSP10 (11751237_a_at) / RFU ID3 (11757404_x_at) / Fold change /veh ID3 (11757404_x_at) / RFU PLEKHG5 (11737974_s_at) / Fold change /veh PLEKHG5 (11737974_s_at) / RFU LRRC4B (11730491_at) / Fold change /veh LRRC4B (11730491_at) / RFU GIMAP4 (11747438_a_at) / Fold change /veh GIMAP4 (11747438_a_at) / RFU KRT8 (11758183_x_at) / Fold change /veh KRT8 (11758183_x_at) / RFU CNN1 (11734310_a_at) / Fold change /veh CNN1 (11734310_a_at) / RFU VPS37D (11726825_at) / Fold change /veh VPS37D (11726825_at) / RFU C10orf10 (11716522_x_at) / Fold change /veh C10orf10 (11716522_x_at) / RFU KIR2DL2 /// KIR2DL4 /// KIR2DL5A /// KIR2DL5B /// KIR2DS1 /// KIR2DS2 /// KIR2DS3 /// KIR2DS4 /// KIR3DL3 /// KIR3DL3 /// KIR3DS1 (11738374_at) / Fold change /veh KIR2DL2 /// KIR2DL4 /// KIR2DL5A /// KIR2DL5B /// KIR2DS1 /// KIR2DS2 /// KIR2DS3 /// KIR2DS4 /// KIR3DL3 /// KIR3DL3 /// KIR3DS1 (11738374_at) / RFU C1QL1 (11718748_at) / Fold change /veh C1QL1 (11718748_at) / RFU TMPRSS4 (11747572_a_at) / Fold change /veh TMPRSS4 (11747572_a_at) / RFU HAMP (11756126_x_at) / Fold change /veh HAMP (11756126_x_at) / RFU RNFT2 (11725882_a_at) / Fold change /veh RNFT2 (11725882_a_at) / RFU NR4A2 (11747474_a_at) / Fold change /veh NR4A2 (11747474_a_at) / RFU ABCC12 (11746883_a_at) / Fold change /veh ABCC12 (11746883_a_at) / RFU TMEM136 (11760407_x_at) / Fold change /veh TMEM136 (11760407_x_at) / RFU CLDN22 /// WWC2 (11732394_at) / Fold change /veh CLDN22 /// WWC2 (11732394_at) / RFU HLA-DPB1 (11760878_x_at) / Fold change /veh HLA-DPB1 (11760878_x_at) / RFU SPINT1 (11716480_a_at) / Fold change /veh SPINT1 (11716480_a_at) / RFU GAP43 (11754022_s_at) / Fold change /veh GAP43 (11754022_s_at) / RFU A4GNT (11735810_at) / Fold change /veh A4GNT (11735810_at) / RFU PRB3 (11715151_x_at) / Fold change /veh PRB3 (11715151_x_at) / RFU TUBB4B (11761932_at) / Fold change /veh TUBB4B (11761932_at) / RFU CAPN14 (11732068_a_at) / Fold change /veh CAPN14 (11732068_a_at) / RFU TMCC2 (11721928_a_at) / Fold change /veh TMCC2 (11721928_a_at) / RFU IRGQ (11745062_a_at) / Fold change /veh IRGQ (11745062_a_at) / RFU FAM174B (11720279_a_at) / Fold change /veh FAM174B (11720279_a_at) / RFU TMPRSS4 (11748680_a_at) / Fold change /veh TMPRSS4 (11748680_a_at) / RFU FAM212B (11763350_a_at) / Fold change /veh FAM212B (11763350_a_at) / RFU PLEKHG5 (11743358_a_at) / Fold change /veh PLEKHG5 (11743358_a_at) / RFU ZSCAN30 (11745921_a_at) / Fold change /veh ZSCAN30 (11745921_a_at) / RFU CMKLR1 (11741424_a_at) / Fold change /veh CMKLR1 (11741424_a_at) / RFU LOC101060620 /// MAPK8IP1 (11723275_at) / Fold change /veh LOC101060620 /// MAPK8IP1 (11723275_at) / RFU SPTSSB (11747773_x_at) / Fold change /veh SPTSSB (11747773_x_at) / RFU PRSS12 (11739890_at) / Fold change /veh PRSS12 (11739890_at) / RFU BIN1 (11741810_x_at) / Fold change /veh BIN1 (11741810_x_at) / RFU WNT11 (11732464_a_at) / Fold change /veh WNT11 (11732464_a_at) / RFU C10orf10 (11716521_a_at) / Fold change /veh C10orf10 (11716521_a_at) / RFU C5orf56 (11738089_at) / Fold change /veh C5orf56 (11738089_at) / RFU CYB561 (11721691_x_at) / Fold change /veh CYB561 (11721691_x_at) / RFU ANKRD19P (11752326_a_at) / Fold change /veh ANKRD19P (11752326_a_at) / RFU OR2T12 /// OR2T33 /// OR2T8 (11738714_s_at) / Fold change /veh OR2T12 /// OR2T33 /// OR2T8 (11738714_s_at) / RFU VCAN (11748164_a_at) / Fold change /veh VCAN (11748164_a_at) / RFU JSRP1 (11732532_at) / Fold change /veh JSRP1 (11732532_at) / RFU KRTAP10-11 (11738290_x_at) / Fold change /veh KRTAP10-11 (11738290_x_at) / RFU MYO3A (11730013_a_at) / Fold change /veh MYO3A (11730013_a_at) / RFU EBF3 (11725865_a_at) / Fold change /veh EBF3 (11725865_a_at) / RFU CAMK2N1 (11719241_x_at) / Fold change /veh CAMK2N1 (11719241_x_at) / RFU C5orf56 (11738088_a_at) / Fold change /veh C5orf56 (11738088_a_at) / RFU OLFML3 (11715873_a_at) / Fold change /veh OLFML3 (11715873_a_at) / RFU LOC100653217 /// NTM (11731650_a_at) / Fold change /veh LOC100653217 /// NTM (11731650_a_at) / RFU MAPK11 (11762145_a_at) / Fold change /veh MAPK11 (11762145_a_at) / RFU FIZ1 (11724087_x_at) / Fold change /veh FIZ1 (11724087_x_at) / RFU OASL (11726364_x_at) / Fold change /veh OASL (11726364_x_at) / RFU SOX15 (11748057_x_at) / Fold change /veh SOX15 (11748057_x_at) / RFU CD79A (11719716_a_at) / Fold change /veh CD79A (11719716_a_at) / RFU HIST1H1D (11736915_at) / Fold change /veh HIST1H1D (11736915_at) / RFU CASKIN2 (11723855_a_at) / Fold change /veh CASKIN2 (11723855_a_at) / RFU LOC730098 (11760151_x_at) / Fold change /veh LOC730098 (11760151_x_at) / RFU OR4N2 (11742367_at) / Fold change /veh OR4N2 (11742367_at) / RFU PRRT2 (11749266_a_at) / Fold change /veh PRRT2 (11749266_a_at) / RFU SNX32 (11753110_a_at) / Fold change /veh SNX32 (11753110_a_at) / RFU CDHR5 (11726645_a_at) / Fold change /veh CDHR5 (11726645_a_at) / RFU RCAN1 (11760418_a_at) / Fold change /veh RCAN1 (11760418_a_at) / RFU FAM167A (11723789_a_at) / Fold change /veh FAM167A (11723789_a_at) / RFU FAM26E (11764081_at) / Fold change /veh FAM26E (11764081_at) / RFU ISYNA1 (11749810_s_at) / Fold change /veh ISYNA1 (11749810_s_at) / RFU ACY1 (11761880_at) / Fold change /veh ACY1 (11761880_at) / RFU 11764098_at / Fold change /veh 11764098_at / RFU SAMD14 (11745864_x_at) / Fold change /veh SAMD14 (11745864_x_at) / RFU NPB (11741838_a_at) / Fold change /veh NPB (11741838_a_at) / RFU TMPRSS6 (11731388_a_at) / Fold change /veh TMPRSS6 (11731388_a_at) / RFU KRTAP10-2 (11738614_at) / Fold change /veh KRTAP10-2 (11738614_at) / RFU ARHGAP8 /// PRR5-ARHGAP8 (11727945_x_at) / Fold change /veh ARHGAP8 /// PRR5-ARHGAP8 (11727945_x_at) / RFU KRTAP5-7 /// NADSYN1 (11734609_at) / Fold change /veh KRTAP5-7 /// NADSYN1 (11734609_at) / RFU RASL12 (11751679_a_at) / Fold change /veh RASL12 (11751679_a_at) / RFU CDKN2B (11736163_a_at) / Fold change /veh CDKN2B (11736163_a_at) / RFU PRF1 (11729649_at) / Fold change /veh PRF1 (11729649_at) / RFU, ZNF638 /// ZNF638-IT1 / Fold change vs veh, ZNF638 /// ZNF638-IT1 / RFU, PANK3 / Fold change vs veh, PANK3 / RFU, SH3YL1 / Fold change vs veh, SH3YL1 / RFU, ZEB2 / Fold change vs veh, ZEB2 / RFU, NRIP1 / Fold change vs veh, NRIP1 / RFU, PTTG1IP / Fold change vs veh, PTTG1IP / RFU, CAPN2 / Fold change vs veh, CAPN2 / RFU, MED14 / Fold change vs veh, MED14 / RFU, SNORA58 / Fold change vs veh, SNORA58 / RFU, C1orf63 / Fold change vs veh, C1orf63 / RFU, LRRFIP1 / Fold change vs veh, LRRFIP1 / RFU, NDUFAF7 / Fold change vs veh, NDUFAF7 / RFU, SLC12A2 / Fold change vs veh, SLC12A2 / RFU, IBTK / Fold change vs veh, IBTK / RFU, ESF1 / Fold change vs veh, ESF1 / Fold change vs veh, TMEM50B / RFU, TAOK1 / Fold change vs veh, TAOK1 / RFU, ACBD3 / Fold change vs veh, ACBD3 / RFU, TMA16 / Fold change vs veh, TMA16 / RFU, RWDD3 / Fold change vs veh, RWDD3 / RFU, BCAT1 / Fold change vs veh, BCAT1 / RFU, EDEM3 / Fold change vs veh, EDEM3 / RFU, TMEM33 / Fold change vs veh, TMEM33 / RFU, WDR75 / Fold change vs veh, WDR75 / RFU, AHCTF1 / Fold change vs veh, AHCTF1 / RFU, TFRC / Fold change vs veh, TFRC / RFU, ZDHHC17 / Fold change vs veh, ZDHHC17 / RFU, NOM1 / Fold change vs veh, NOM1 / RFU, ARL8B / Fold change vs veh, ARL8B / RFU, ZBTB11 / Fold change vs veh, ZBTB11 / RFU, TAMM41 / Fold change vs veh, TAMM41 / RFU, KIAA1704 /// LOC100996395 / Fold change vs veh, KIAA1704 /// LOC100996395 / RFU, ING1 / Fold change vs veh, ING1 / RFU, TRMT61B / Fold change vs veh, TRMT61B / RFU, FUBP3 / Fold change vs veh, FUBP3 / RFU, TP53 / Fold change vs veh, TP53 / RFU, TNKS2 / Fold change vs veh, TNKS2 / RFU, ZFP14 / Fold change vs veh, ZFP14 / RFU, ACTR2 / Fold change vs veh, ACTR2 / RFU, PPP3R1 / Fold change vs veh, PPP3R1 / RFU, PIK3R1 / Fold change vs veh, PIK3R1 / RFU, HNRNPA1 / Fold change vs veh, HNRNPA1 / RFU, RNF170 / Fold change vs veh, RNF170 / RFU, ZNF28 / Fold change vs veh, ZNF28 / RFU, RNGTT / Fold change vs veh, RNGTT / RFU, OGT / Fold change vs veh, OGT / RFU, BRD1 / Fold change vs veh, BRD1 / RFU, MARS / Fold change vs veh, MARS / RFU, ZNF655 / Fold change vs veh, ZNF655 / RFU, FAHD1 / Fold change vs veh, FAHD1 / RFU, BDP1 / Fold change vs veh, BDP1 / RFU, LRRCC1 / Fold change vs veh, LRRCC1 / RFU, ARID1A / Fold change vs veh, ARID1A / RFU, ZNF146 / Fold change vs veh, ZNF146 / RFU, ZNF330 / Fold change vs veh, ZNF330 / RFU, GPN3 / Fold change vs veh, GPN3 / RFU, C9orf123 / Fold change vs veh, C9orf123 / RFU, N4BP2L2 / Fold change vs veh, N4BP2L2 / RFU, ARFIP1 / Fold change vs veh, ARFIP1 / RFU, FAM179B / Fold change vs veh, FAM179B / RFU, BCL10 / Fold change vs veh, BCL10 / RFU, UHRF1BP1L / Fold change vs veh, UHRF1BP1L / RFU, BET1 / Fold change vs veh, BET1 / RFU, CNOT2 / Fold change vs veh, CNOT2 / RFU, ZNF268 / Fold change vs veh, ZNF268 / Fold change vs veh, ZNF507 / RFU, DGCR2 / Fold change vs veh, DGCR2 / RFU, WDSUB1 / Fold change vs veh, WDSUB1 / Fold change vs veh, HSP90B1 /// MIR3652 / RFU, ADSS / Fold change vs veh, ADSS / RFU, GK / Fold change vs veh, GK / RFU, ZNF148 / Fold change vs veh, ZNF148 / RFU, TAF9 / Fold change vs veh, TAF9 / RFU, SLC1A5 / Fold change vs veh, SLC1A5 / RFU, SLMO2 / Fold change vs veh, SLMO2 / RFU, ABCC4 / Fold change vs veh, ABCC4 / RFU, LOC101060439 /// RAP1B / Fold change vs veh, LOC101060439 /// RAP1B / RFU, RFX7 / Fold change vs veh, RFX7 / RFU, GTPBP10 / Fold change vs veh, GTPBP10 / RFU, CNEP1R1 / Fold change vs veh, CNEP1R1 / RFU, BIVM-ERCC5 /// ERCC5 / Fold change vs veh, BIVM-ERCC5 /// ERCC5 / RFU, ILF3 / Fold change vs veh, ILF3 / RFU 11762660_at / Fold change /veh 11762660_at / RFU VCAN (11757783_s_at) / Fold change /veh VCAN (11757783_s_at) / RFU DDX43 (11728927_at) / Fold change /veh DDX43 (11728927_at) / RFU KRT8 (11758188_x_at) / Fold change /veh KRT8 (11758188_x_at) / RFU NKD1 (11759106_at) / Fold change /veh NKD1 (11759106_at) / RFU SRD5A1 (11742802_a_at) / Fold change /veh SRD5A1 (11742802_a_at) / RFU TPSAB1 /// TPSB2 (11721975_s_at) / Fold change /veh TPSAB1 /// TPSB2 (11721975_s_at) / RFU GSTM3 (11746129_a_at) / Fold change /veh GSTM3 (11746129_a_at) / RFU IL23R (11737362_x_at) / Fold change /veh IL23R (11737362_x_at) / RFU TMEM51 (11727254_a_at) / Fold change /veh TMEM51 (11727254_a_at) / RFU PIWIL2 (11732686_x_at) / Fold change /veh PIWIL2 (11732686_x_at) / RFU ORM1 (11744905_x_at) / Fold change /veh ORM1 (11744905_x_at) / RFU CCDC152 (11743942_at) / Fold change /veh CCDC152 (11743942_at) / RFU ECM1 (11717891_a_at) / Fold change /veh ECM1 (11717891_a_at) / RFU IL23R (11748794_a_at) / Fold change /veh IL23R (11748794_a_at) / RFU TNFAIP8L3 (11732012_x_at) / Fold change /veh TNFAIP8L3 (11732012_x_at) / RFU MBOAT4 (11741988_at) / Fold change /veh MBOAT4 (11741988_at) / RFU 11764193_at / Fold change /veh 11764193_at / RFU TMEM53 (11763286_at) / Fold change /veh TMEM53 (11763286_at) / RFU MAGEB2 (11727129_at) / Fold change /veh MAGEB2 (11727129_at) / RFU TMEM200A (11744735_a_at) / Fold change /veh TMEM200A (11744735_a_at) / RFU CCDC152 (11751479_a_at) / Fold change /veh CCDC152 (11751479_a_at) / RFU FAM211A (11726209_a_at) / Fold change /veh FAM211A (11726209_a_at) / RFU RGS16 (11746705_a_at) / Fold change /veh RGS16 (11746705_a_at) / RFU VCAN (11755009_s_at) / Fold change /veh VCAN (11755009_s_at) / RFU RHOB (11743442_s_at) / Fold change /veh RHOB (11743442_s_at) / RFU RGS16 (11720943_a_at) / Fold change /veh RGS16 (11720943_a_at) / RFU RGS16 (11720944_at) / Fold change /veh RGS16 (11720944_at) / RFU, VPS4B / Fold change vs veh, VPS4B / RFU, CREB1 / Fold change vs veh, CREB1 / RFU, DNAJC13 / Fold change vs veh, DNAJC13 / RFU, GNAQ / Fold change vs veh, GNAQ / RFU, CDK5R1 / Fold change vs veh, CDK5R1 / RFU, ZRANB3 / Fold change vs veh, ZRANB3 / RFU, CUL4A / Fold change vs veh, CUL4A / RFU, CCNY / Fold change vs veh, CCNY / RFU, UFL1 / Fold change vs veh, UFL1 / RFU, COG3 / Fold change vs veh, COG3 / RFU, DIAPH2 / Fold change vs veh, DIAPH2 / RFU, SKA2 / Fold change vs veh, SKA2 / RFU, AFF3 / Fold change vs veh, AFF3 / RFU, LMF1 / Fold change vs veh, LMF1 / RFU, IPO11 / Fold change vs veh, IPO11 / RFU, DFFB / Fold change vs veh, DFFB / RFU, FOXP1 / Fold change vs veh, FOXP1 / RFU, CARD8 / Fold change vs veh, CARD8 / RFU, STRN3 / Fold change vs veh, STRN3 / RFU, ADK / Fold change vs veh, ADK / RFU, RASSF2 / Fold change vs veh, RASSF2 / RFU, WIPF1 / Fold change vs veh, WIPF1 / RFU, LARP1B / Fold change vs veh, LARP1B / RFU, RASA1 / Fold change vs veh, RASA1 / RFU, RB1 / Fold change vs veh, RB1 / RFU, PPFIA1 / Fold change vs veh, PPFIA1 / RFU, MAT2A / Fold change vs veh, MAT2A / RFU, CCT5 / Fold change vs veh, CCT5 / RFU, WDR92 / Fold change vs veh, WDR92 / RFU, CUX1 / Fold change vs veh, CUX1 / RFU, TTC7A / Fold change vs veh, TTC7A / RFU, TMEM135 / Fold change vs veh, TMEM135 / RFU, DEPTOR / Fold change vs veh, DEPTOR / RFU, CPM / Fold change vs veh, CPM / RFU, DNAJB6 / Fold change vs veh, DNAJB6 / RFU, CACNA2D3 / Fold change vs veh, CACNA2D3 / RFU, DTX4 / Fold change vs veh, DTX4 / RFU, TFCP2 / Fold change vs veh, TFCP2 / RFU, GMCL1 /// GMCL1P1 / Fold change vs veh, GMCL1 /// GMCL1P1 / RFU, AEBP2 / Fold change vs veh, AEBP2 / RFU, SNHG1 /// SNORD22 /// SNORD25 /// SNORD26 /// SNORD27 /// SNORD28 /// SNORD29 /// SNORD31 / Fold change vs veh, SNHG1 /// SNORD22 /// SNORD25 /// SNORD26 /// SNORD27 /// SNORD28 /// SNORD29 /// SNORD31 / Fold change (Aza/veh), C12orf56 (ProbeSet 11735607_a_at) / Fold change (ACY-1035/veh), C12orf56 (ProbeSet 11735607_a_at) / Fold change (Aza/veh), FGFR1OP (ProbeSet 11751329_s_at) / Fold change (ACY-1035/veh), FGFR1OP (ProbeSet 11751329_s_at) / Fold change (Aza/veh), VPS36 (ProbeSet 11739960_a_at) / Fold change (ACY-1035/veh), VPS36 (ProbeSet 11739960_a_at) / RFU SYPL1 (11715823_x_at) / Fold change /veh SYPL1 (11715823_x_at) / RFU IGFBP7 (11715501_s_at) / Fold change /veh IGFBP7 (11715501_s_at) / RFU REEP3 (11722064_at) / Fold change /veh REEP3 (11722064_at) / RFU IGLL1 (11728026_x_at) / Fold change /veh IGLL1 (11728026_x_at): dose or concentration left out as unconfirmed
Conditions: ProbeSet 11724763_s_at; LIST D

Nc1ccc(-c2cccs2)cc1NC(=O)c1ccc2c(c1)cc(C1CC1)n2CCN1CCOCC1 [ACY-1035]
Fold change vs veh, DEPTOR: 0.84
